22 compounds from patent US10214546B2, “Btk inhibitors” (MERCK SHARP & DOHME CORP., priority 2014, dated 2019) can be followed below.

As a reminder, the IC50 is the concentration needed to halve the response being measured.

For test [1], the system named is adenosine uptake into HeLa cells. In words: [3H]Adenosine uptake assay in HeLa cells. The class given is cell-based. The settings on record: [3H]adenosine accumulation in HeLa cells, compound range 10 μM to 0.032 nM, read-out: ADU inhibition IC50. The essentials: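 HeLa cells in HBSS + 5% FBS were preincubated 30 min at ambient temperature with compound (ten-point 1:3 series, 10 µM–[…] final), then given [3H]adenosine (added as a 500 nM solution) for 60 min. Cell-associated label was read by scintillating-plate proximity counting; IC50 from 4-parameter fit of cps versus log concentration.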

Test [2] addresses BTK enzyme (recombinant full-length BTK, hBTK) (Homo sapiens (Human), UniProt Q06187). In words: BTK enzymatic activity LANCE TR-FRET assay. The class given is biochemical. As to conditions: 50 pM hBTK, 25 μM ATP, 2 μM biotin-A5-peptide; compound range 1 μM to 0.017 nM; read-out: BTK binding IC50.

Where two headings read alike, the source gives them in different places.

BTK enzyme (recombinant full-length BTK, hBTK), sequence (Q06187 whole entry): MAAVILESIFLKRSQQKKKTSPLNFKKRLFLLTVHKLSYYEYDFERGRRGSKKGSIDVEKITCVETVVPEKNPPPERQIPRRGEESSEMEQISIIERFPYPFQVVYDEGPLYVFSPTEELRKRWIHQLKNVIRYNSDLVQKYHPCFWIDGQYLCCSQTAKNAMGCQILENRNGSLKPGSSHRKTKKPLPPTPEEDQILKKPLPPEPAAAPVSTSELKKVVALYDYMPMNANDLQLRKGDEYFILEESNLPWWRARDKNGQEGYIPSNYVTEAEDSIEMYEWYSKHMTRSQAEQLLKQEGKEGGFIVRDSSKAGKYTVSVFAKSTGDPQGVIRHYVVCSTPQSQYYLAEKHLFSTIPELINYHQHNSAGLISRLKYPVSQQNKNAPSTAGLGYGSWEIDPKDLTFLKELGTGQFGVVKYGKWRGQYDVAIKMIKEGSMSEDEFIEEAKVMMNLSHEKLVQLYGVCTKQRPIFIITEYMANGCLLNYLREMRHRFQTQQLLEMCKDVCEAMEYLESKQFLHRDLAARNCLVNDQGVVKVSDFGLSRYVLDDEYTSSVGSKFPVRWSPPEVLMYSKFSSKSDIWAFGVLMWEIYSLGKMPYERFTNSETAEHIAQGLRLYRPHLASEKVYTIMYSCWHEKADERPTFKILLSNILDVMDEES

For the compound `CCOc1cc(C(C)(O)c2cccc(C(F)(F)F)c2)ccc1-c1nc([C@@H]2CC[C@H]3CCC(=O)N3C2)n2ccnc(N)c12` (stereo partly drawn) [Example 162, (6R,8aS)-6-[8-amino-1-(2-ethoxy-4-{1-hydroxy-1-[3-(trifluoromethyl)phenyl]ethyl}phenyl)imidazo [1,5-a]pyrazin-3-yl]hexahydroindolizin-3(2H)-one], the IC50 in test [1] (Homo sapiens, HeLa) stood at 4210 nM; in test [2], 0.63 nM.
Taken in the same sequence, the figures for `C[C@@](O)(c1ccc(-c2nc([C@@H]3CC[C@H]4CCC(=O)N4C3)n3c(Cl)cnc(N)c23)cc1)c1cccc(C(F)F)c1` [Example 134, (6R,8aS)-6-[8-amino-5-chloro-1-(4-{(1R)-1-[3-(difluoromethyl)phenyl]-1-hydroxyethyl}phenyl)imidazo[1,5-a]|pyrazin-3-yl]hexahydroindolizin-3(2H)-one] were 2330 nM and 0.14 nM.
`Cc1ccc(C(F)(F)F)cc1C(O)c1ccc(-c2nc([C@@H]3CC[C@H]4CCC(=O)N4C3)n3ccnc(N)c23)cc1` (stereo partly drawn) [Example 130, (6R,8aS)-6-[8-amino-1-(4-{hydroxy[2-methyl-5-(trifluoromethyl)phenyl]methyl}phenyl)imidazo [1,5-a]pyrazin-3-yl]hexahydroindolizin-3(2H)-one]: the IC50 came to 1440 nM in test [1] and 12.7 nM in test [2].
`CCc1cccc([C@](C)(O)c2ccc(-c3nc([C@@H]4CC[C@H]5CCC(=O)N5C4)n4ccnc(N)c34)cc2)c1` [Example 93, (6R,8aS)-6-(8-amino-1-(4-[(1R)-1-(3-ethylphenyl)-1-hydroxyethyl]phenyl}imidazo[1,5-a]pyrazin-3-yl)hexahydroindolizin-3(2H)-one]: the IC50 in test [1] (Homo sapiens, HeLa) was found to be 1380 nM; in test [2] it was 0.15 nM.
Turning to `Nc1nccn2c([C@@H]3CC[C@H]4CCC(=O)N4C3)nc(-c3ccc(C(O)(c4cccc(C(F)(F)F)c4)C4CC4)cc3)c12` (stereo partly drawn) [Example 86, (6R,8aS)-6-[8-amino-1-(4-{cyclopropyl(hydroxy)[3-(trifluoromethyl)phenyl]methyl}phenyl)imidazo [1,5-a]pyrazin-3-yl]hexahydroindolizin-3(2H)-one], the IC50 in test [1] turned out to be 589 nM; in test [2], 1000 nM.
As for `COc1cccc([C@@](C)(O)c2ccc(-c3nc([C@@H]4CC[C@H]5CCC(=O)N5C4)n4ccnc(N)c34)cc2)c1` [Example 44, (6R,8aS)-6-(8-amino-1-{4-[(1S)-1-hydroxy-1-(3-methoxyphenyl)ethyl]phenyl}imidazo[1,5-a]pyrazin-3-yl)hexahydroindolizin-3(2H)-one], the half-maximal inhibitory concentration (IC50) in test [1] (Homo sapiens, HeLa) was 1780 nM; in test [2] it was 81.4 nM.
The corresponding values for `CC(O)(c1cccc(C(F)(F)F)c1)c1ccc(-c2nc([C@@H]3CC[C@H]4CCC(=O)N4C3)n3ccnc(N)c23)c(C2CC2)c1` (stereo partly drawn) [Example 88, (6R,8aS)-6-[8-amino-1-(2-cyclopropyl-4-{1-hydroxy-1-[3-(trifluoromethyl)phenyl]ethyl}phenyl)imidazo [1,5-a]pyrazin-3-yl]hexahydroindolizin-3(2H)-one] are 1100 nM and 576 nM.
On to `CC(O)(c1cccc(C(F)(F)F)c1)c1ccc(-c2nc([C@@H]3CC[C@@H]4N(C3)C(=O)CC4(C)C)n3ccnc(N)c23)c(F)c1` (stereo partly drawn) [Example 191, (6R,8aS)-6-[8-amino-1-(2-fluoro-4-{1-hydroxy-1-[3-(trifluoromethyl)phenyl]ethyl}phenyl)imidazo [1,5-a]pyrazin-3-yl]-1,1-dimethylhexahydroindolizin-3(2H)-one], for which the IC50 in test [1] stood at 431 nM; in test [2] it was 36.9 nM.
For `C[C@](O)(c1ccc(-c2nc([C@@H]3CC[C@H]4CCC(=O)N4C3)n3ccnc(N)c23)cc1)c1cccc(CC(F)(F)F)c1` [Example 77, (6R,8aS)-6-[8-amino-1-(4-{(1S)-1-hydroxy-1-[3-(2,2,2-trifluoroethyl)phenyl]ethyl}phenyl)imidazo[1,5-a]pyrazin-3-yl]hexahydroindolizin-3(2H)-one], the IC50 in test [1] (Homo sapiens, HeLa) is 1040 nM; in test [2] it was 24.2 nM.
Taken in the same sequence, the figures for `C[C@@H]1OC(=O)N2C[C@H](c3nc(-c4ccc([C@@](C)(O)c5cccc(C(F)(F)F)c5)cc4)c4c(N)nccn34)OC[C@@H]12` [Example 9, (6R,8aS)-6-(8-amino-1-(4-((R)-1-hydroxy-1-(3-(trifluoromethyl)phenyl)ethyl)phenyl)imidazo[1,5-a]pyrazin-3-yl)-1-methyltetrahydrooxazolo[4,3-c][1,4]oxazin-3(1H)-one] were 5540 nM and 13 nM.
As for `CC(O)(c1ccccc1)c1ccc(-c2nc([C@@H]3CC[C@H]4CCC(=O)N4C3)n3ccnc(N)c23)c(F)c1` (some centres unmarked) [Example 24], the IC50 turned out to be 2490 nM in test [1] (Homo sapiens, HeLa) and 5.2 nM in test [2].
Turning to `C[C@@](O)(c1cccc(C(F)(F)F)c1)c1ccc(-c2nc([C@@H]3CC[C@H]4CCC(=O)N4C3)n3ccnc(N)c23)c(CO)c1` [Example 21, (6R,8aS)-6-(8-amino-1-(4-((S)-1-hydroxy-1-(3-(trifluoromethyl)phenyl)ethyl)-2-(hydroxymethyl)phenyl)imidazo[1,5-a]pyrazin-3-yl)hexahydroindolizin-3(2H)-one], the IC50 stood at 7480 nM in test [1] (Homo sapiens, HeLa) and 5.8 nM in test [2].
Regarding `CC(O)(c1cccc(C(F)(F)F)c1)c1ccc(-c2nc([C@@H]3CC[C@H]4CCC(=O)N4C3)n3c(Cl)cnc(N)c23)c(F)c1` (stereo partly drawn) [Example 190, (6R,8aS)-6-[8-amino-5-chloro-1-(2-fluoro-4-{1-hydroxy-1-[3-(trifluoromethyl)phenyl]ethyl}phenyl)imidazo [1,5-a]pyrazin-3-yl]hexahydroindolizin-3(2H)-one], the results for the IC50 in test [1] and in test [2] were 316 nM and 310 nM, respectively.
Consider `CC1(C)OC(=O)N2C[C@H](c3nc(-c4ccc([C@@](C)(O)c5cccc(C(F)F)c5)cc4)c4c(N)nccn34)OC[C@H]21` [Example 187, (6R,8aS)-6-[8-amino-1-(4-{(1R)-1-[3-(difluoromethyl)phenyl]-1-hydroxyethyl}phenyl)imidazo[1,5-a]pyrazin-3-yl]-1,1-dimethyltetrahydro-1H-[1,3]oxazolo[4.3-c][1,4]oxazin-3-one], for which the IC50 in test [1] (Homo sapiens, HeLa) turned out to be 2640 nM; in test [2] it was 2.8 nM.
As to `CN1CC[C@@H]2CC[C@@H](c3nc(-c4ccc([C@](C)(O)c5cccc(C(F)(F)F)c5)cc4)c4c(N)nccn34)CN2C1=O` [Example 115, (4aS,7R)-7-[8-amino-1-(4-{(1S)-1-hydroxy-1-[3-(trifluoromethyl)phenyl]ethyl}phenyl)imidazo [1,5-a]pyrazin-3-yl]-2-methyloctahydro-1H-pyrido[1,2-c]pyrimidin-1-one], the IC50 in test [1] (Homo sapiens, HeLa) came out at 172 nM; in test [2], 51.9 nM.
As for `Nc1nccn2c([C@@H]3CC[C@H]4CCC(=O)N4C3)nc(-c3ccc(C(O)(c4cccc(F)c4)C(F)(F)F)cc3)c12` (stereo partly drawn) [Example 29, (6R,8aS)-6-(8-amino-1-{4-[2,2,2-trifluoro-1-(3-fluorophenyl)-1-hydroxyethyl]phenyl}imidazo[1,5-a]pyrazin-3-yl)hexahydroindolizin-3(2H)-one], the IC50 stood at 1990 nM in test [1] (Homo sapiens, HeLa) and 6.9 nM in test [2].
Consider `CC(C)(c1cccc([C@@](C)(O)c2ccc(-c3nc([C@@H]4CC[C@H]5CCC(=O)N5C4)n4ccnc(N)c34)cc2)c1)C(F)(F)F` [Example 109, (6R,8aS)-6-[8-amino-1-(4-{(1S)-1-hydroxy-1-[3-(2,2,2-trifluoro-1,1-dimethylethyl)phenyl]ethyl}phenyl)imidazo[1,5-a]pyrazin-3-yl]hexahydroindolizin-3(2H)-one], for which the IC50 was 892 nM in test [1] (Homo sapiens, HeLa) and 44.9 nM in test [2].
Taken in the same sequence, the figures for `CC(O)(c1ccc(-c2nc([C@@H]3CC[C@H]4CCC(=O)N4C3)n3ccnc(N)c23)cc1)c1ccccc1C(F)(F)F` (stereo partly drawn) [Example 31, (6R,8aS)-6-[8-amino-1-(4-{1-hydroxy-1-[2-(trifluoromethyl)phenyl]ethyl}phenyl)imidazo [1,5-a]pyrazin-3-yl]hexahydroindolizin-3(2H)-one] were 4810 nM and 78.3 nM.
Taken in the same sequence, the figures for `C[C@](O)(c1ccc(-c2nc([C@@H]3CC[C@H]4CCC(=O)N4C3)n3ccnc(N)c23)cc1)c1cccc(C(F)(F)F)n1` [Example 137, (6R,8aS)-6-[8-amino-1-(4-{(1S)-1-hydroxy-1-[6-(trifluoromethyl)pyridin-2-yl]ethyl}phenyl)imidazo [1,5-a]pyrazin-3-yl]hexahydroindolizin-3(2H)-one] were 865 nM and 876 nM.
As for `COc1cc(C(C)(O)c2cccc(C(F)(F)F)c2)ccc1-c1nc([C@@H]2CC[C@@H]3N(C2)C(=O)CC3(C)C)n2ccnc(N)c12` (stereo partly drawn) [Example 205, (6R,8aS)-6-[8-amino-1-(4-{1-hydroxy-1-[3-(trifluoromethyl)phenyl]ethyl}-2-methoxyphenyl)imidazo [1,5-a]pyrazin-3-yl]-1,1-dimethylhexahydroindolizin-3(2H)-one], the IC50 in test [1] was 3500 nM; in test [2], 2 nM.
The corresponding values for `CC(O)(c1ccc(-c2nc([C@@H]3CC[C@H]4CCC(=O)N4C3)n3ccnc(N)c23)cc1)c1cccc(C2CC2(F)F)c1` (stereo partly drawn) [Example 165, (6R,8aS)-6-[8-amino-1-(4-{1-[3-(2,2-difluorocyclopropyl)phenyl]-1-hydroxyethyl}phenyl)imidazo[1,5-a]pyrazin-3-yl]hexahydroindolizin-3(2H)-one] are 1090 nM and 28.9 nM.
The corresponding values for `C[C@@](O)(c1ccc(-c2nc([C@@H]3CC[C@H]4C(C(F)(F)F)CC(=O)N4C3)n3ccnc(N)c23)cc1)c1cccc(C(F)(F)F)c1` (stereo partly drawn) [Example 180, (1R,6R,8aS)-6-[8-amino-1-(4-{(1R)-1-hydroxy-1-[3-(trifluoromethyl)phenyl]ethyl}phenyl)imidazo [1,5-a]pyrazin-3-yl]-1-(trifluoromethyl) hexahydroindolizin-3(2H)-one] are 2460 nM and 4.2 nM.
